{"source": "patent US20080269338A1", "about": "“AQUEOUS SOLUTIONS CONTAINING CHLORAMINE WHICH ARE FREE FROM DI-AND TRICHLOROAMINE, AS WELL AS FROM AMMONIA” (priority 2007, published 2008)", "key": {"bacteria": {"tested_on": "bacteria", "experiment": "Killing tests, bacterial strains in general", "type": "cell-based", "details": "preliminary experiments, without NCT", "experimental": "Microbicidal activity. […] The impact of ammonium chloride on the microbicidal activity of NCT could be confirmed in several bacterial strains (FIG. 4).\nBacterial strains, Staphylococcus aureus ATCC 25923 and 6538, Staphylococcus epidermidis ATCC 12228, Escherichia coli ATCC 11229, Proteus mirabilis ATCC 14153, Pseudomonas aeruginosa ATCC 27853, and a clinical isolate of […] deep-frozen for storage were grown overnight on tryptic soy agar (Merck, Darmstadt, Germany). Colonies from this agar were grown in tryptic soy broth (Merck, Darmstadt, Germany) at 37° C. overnight and washed twice with saline.\nKilling tests. Bacteria were diluted in buffered test solution to concentrations of 1×10^6 to 5×10^7 CFU/mL. Immediately and subsequent to different incubation times at room temperature, aliquots were removed, and NCT with or without ammonium chloride or plain monochloramine was inactivated by 10-fold dilution in 0.3% sodium thiosulfate. Aliquots (50 μL) of these solutions as well as of 100-fold further dilutions in saline were spread onto tryptic soy agar plates with an automatic spiral plater (Don Whitley Scientific Limited, West Yorkshire, UK) in duplicates allowing a detection limit of 200 CFU/mL. Plates were grown at 37° C., and CFU were counted after 24 and 48 hours. Controls without NCT were treated the same way."}, "[1]": {"experiment": "Stability of active chlorine compound with ammonium salt in water (pH, oxidation capacity)", "type": "physicochemical"}, "[2]": {"experiment": "Example 5: penetration through the human cornea (diffusion chamber)", "details": "room temperature", "experimental": "A human cornea was clamped in a specially designed chamber. The upper compartment was filled with the disinfectant, while the lower one contained the buffer solution. The system was equilibrated for 2, 4, and 6 hours at room temperature, and afterwards the oxidation capacity was determined in the buffer solution of the lower compartment."}, "[3]": {"details": "human eye (Nagl et al.); cited from earlier work"}, "[4]": {"details": "rabbit eye (Nagl et al.); cited from earlier work"}, "[5]": {"experiment": "Example 2: stability of a pure monochloramine solution (UV spectrum)", "type": "physicochemical", "details": "three days storage in the refrigerator at 0-3° C.", "experimental": "A solution of 1 g each of N-chlorotaurine and ammonium chloride in 100 mL water was distilled in a rotavapor (water stream vacuum, water bath temperature 50° C.). The distillate contained, according to the UV spectrum, […] pure monochloramine (NH2Cl, absorption band at λmax=244 nm, A244=0.9812, d=0.1 cm, ε244=461.6 L mol^−1 cm^−1). After three days storage in the refrigerator at 0-3° C., the band at 244 disappeared, while two bands at 203 nm (A=1.146) and 294 nm (A0 0.148) appeared which are characteristic for the chromophor —NCl2. Gottardi et al., supra."}, "[6]": {"details": "with ammonium, 0.1 M phosphate buffer"}, "[7]": {"details": "with excess ammonium, no buffer"}}, "note": "Where two headings read alike, the source gives them in different places.", "data": [{"smiles": "Cl.N", "note": "[Ammonium chloride]", "values": [{"measurement": "Influence on viability", "setting": "bacteria", "result": "no influence on viability"}]}, {"smiles": "[Ca+2].[O-]Cl.[O-]Cl", "note": "[Calcium hypochlorite]", "values": [{"measurement": "Behaviour with ammonium compared with chloramine-T", "setting": "[1]", "result": "behave in the same manner"}]}, {"smiles": "O=S(=O)(O)CCNCl", "note": "[NCT, N-chlorotaurine]", "values": [{"measurement": "Diffused oxidation capacity, from the starting value in the upper compartment", "setting": "[2]; after 2 hours", "result": 1.3, "unit": "%"}, {"measurement": "Diffused oxidation capacity, from the starting value in the upper compartment", "setting": "[2]; after 4 hours", "result": 4.8, "unit": "%"}, {"measurement": "Diffused oxidation capacity, from the starting value in the upper compartment", "setting": "[2]; after 6 hours", "result": 25.4, "unit": "%"}, {"measurement": "Tolerability", "setting": "[3]", "result": "good tolerability"}, {"measurement": "Tolerability", "setting": "[4]", "result": "good tolerability"}]}, {"smiles": "Cc1ccc(S(=O)(=O)NCl)cc1.[Na]", "note": "[chloramine-T, N-chloro-4-toluenesulfonamide sodium]", "values": [{"measurement": "Loss of oxidation capacity within 1 hour", "setting": "[1]; [6]", "result": 90, "unit": "%"}, {"measurement": "pH within 2 hours", "setting": "[1]; [6]", "result": 6.3}, {"measurement": "pH, start", "setting": "[1]; [6]", "result": 7.0}, {"measurement": "pH within 8 minutes", "setting": "[1]; [7]", "result": 2.9}, {"measurement": "pH, start", "setting": "[1]; [7]", "result": 6.8}]}, {"smiles": "NCl", "note": "[monochloramine]", "values": [{"measurement": "Conversion of NH2Cl to NHCl2", "setting": "[5]", "result": "complete conversion of NH2Cl to NHCl2"}]}, {"smiles": "O=c1nc([O-])n(Cl)c(=O)n1Cl.[Na+]", "note": "[sodium dichloro-isocyanurate]", "values": [{"measurement": "Behaviour with ammonium compared with chloramine-T", "setting": "[1]", "result": "behave in the same manner"}]}]}
